Experimental data: patent US7022836B2, “Methods for producing and transforming cassava protoplasts” (National Starch and Chemical Investment Holding Corporation, priority 1999, dated 2006)
Marks after values point to notes of the source that are not given here.

Test system: cassava leaf explants
Assay: Primary somatic embryogenesis from leaf explants (mature embryos per cultured leaf explant)
Type: cell-based
Conditions: for leaf explants that formed ME / number of ME/CLE: maximum
Experimental: The procedure to obtain FEC is outlined in FIG. 1. 1t starts with the induction of primary embryos. Primary embryos are formed in a two step procedure. In the first step explants are cultured on medium supplemented with salts and vitamins (preferably Murashige and Skoog (1962)), a carbohydrate source (for example 20 g/l sucrose) and an auxin (e.g. 1–8 mg/l picloram, or dicamba or 2,4-D) for the initiation of embryos. After 10 to 15 days on this first medium bipolar torpedo shaped embryos are formed. […] After transfer of the explants with torpedo shaped embryos to a step 2 medium (the same medium as step 1 but without an auxin, with eventually the addition of cytokinins) the torpedo shaped embryos become mature.
In the presently used protocol there is genotypic variation in the number of mature embryos formed per cultured explant. The genotypes M.Col1505, M.Col22 and Gading gave the highest numbers of mature embryos per cultured leaf explant (ME/CLE). However, the number of mature embryos formed was low. In M.Col22 a maximum of 22% of the leaf explants isolated from in vitro grown plants and cultured on a step 1 medium with 4 mg/l 2,4-D, formed ME with a maximum number of 0.8 ME/CLE. On a step 1 medium with 8 mg/l 2,4-D a maximum of 49% of the leaf explants formed ME with a maximum number of 3.5 ME/CLE.
Mathews et al. (1993) improved the efficiency of primary embryogenesis in the genotype M.Co11505 by transferring explants after 15 days of step 1 medium to a growth regulator-free medium supplemented with 0.5% charcoal. On this medium maturation was improved and as a result the number of mature embryos increased from 0.4 in the control to 3,4 ME/CLE. The best results were obtained if donor plants were pretreated with auxins as 2,4-D or picloram or Dicamba. For this, plants were grown in liquid MS20 medium and supplied with the auxin (final concentration 8 mg/l) after 12 days of growth. Two days later leaf explants were isolated of the donor plants and cultured on step 1 medium with 8 mg/l 2,4-D, picloram or Dicamba.

[1] = M.Col22, step 1 medium with 4 mg/l 2,4-D
[2] = M.Col22, step 1 medium with 8 mg/l 2,4-D

For `O=C(O)COc1ccc(Cl)cc1Cl` [2,4-D, 2,4-dichlorophenoxyacetic acid], the “leaf explants that formed ME” value [1] was at most 22%, the “number of ME/CLE” value [1] was at most 0.8 ME/CLE and the “leaf explants that formed ME” value [2] was at most 49%. The “number of ME/CLE” value [2] was at most 3.5 ME/CLE, the “primary mature embryos per cultured leaf explant after 2,4-D pretreatment” value (genotype M.Col22, pretreatment yes) was 9.4 # mature embryos per cultured leaf explant and the “primary mature embryos per cultured leaf explant after 2,4-D pretreatment” value (genotype TMS 4(2)1244, pretreatment yes) was 0 # mature embryos per cultured leaf explant. The “primary mature embryos per cultured leaf explant after 2,4-D pretreatment” value (genotype TMS 30001, pretreatment yes) was 0 # mature embryos per cultured leaf explant, the “primary mature embryos per cultured leaf explant after 2,4-D pretreatment” value (genotype TMS 30211, pretreatment yes) was 0 # mature embryos per cultured leaf explant and the “primary mature embryos per cultured leaf explant after 2,4-D pretreatment” value (genotype TMS 30395, pretreatment yes) was 0.1 # mature embryos per cultured leaf explant. The “primary mature embryos per cultured leaf explant after 2,4-D pretreatment” value (genotype TMS 30555, pretreatment yes) was 0.7 # mature embryos per cultured leaf explant, the “primary mature embryos per cultured leaf explant after 2,4-D pretreatment” value (genotype TMS 30572, pretreatment yes) was 0 # mature embryos per cultured leaf explant and the “primary mature embryos per cultured leaf explant after 2,4-D pretreatment” value (genotype TMS 50395, pretreatment yes) was <0.1 # mature embryos per cultured leaf explant. For the same molecule, the “primary mature embryos per cultured leaf explant after 2,4-D pretreatment” value (genotype TMS 60444, pretreatment yes) was 1.1 # mature embryos per cultured leaf explant, the “primary mature embryos per cultured leaf explant after 2,4-D pretreatment” value (genotype TMS 60506, pretreatment yes) was <0.1 # mature embryos per cultured leaf explant and the “primary mature embryos per cultured leaf explant after 2,4-D pretreatment” value (genotype TMS 90059, pretreatment yes) was <0.1 # mature embryos per cultured leaf explant. For the same molecule, the “primary mature embryos per cultured leaf explant after 2,4-D pretreatment” value (genotype TMS 90853, pretreatment yes) was 0.2 # mature embryos per cultured leaf explant.
